According to patent US8841277B2, “Methods for treating non-small cell lung cancer using 5-azacytidine” (Celgene Corporation, priority 2009, dated 2014):

Test system: NSCLC cells
Experiment: Western analysis of DNA damage and cell death markers, summary
Assay type: cell-based
Settings: H460, A549, H1299 studies
Experimental: These studies also examined apoptosis using an assay for PARP cleavage. Cells studied included H460, A549, and H1299 cells.
For western analyses of protein levels, cells were washed with PBS and lysed with RIPA buffer (Cell Signaling Technology, Inc.; Danvers, Mass.) containing 350 mM NaCl and 0.1% SDS. Cell lysates were sonicated with two 5-second bursts under low amplitude (20%) using the Digital Sonic Dismembrator (Thermo Fisher Scientific, Inc.; Waltham, Mass.). Proteins were separated on 4-12% Bis-Tris NuPAGE gels (Life Technologies Corporation) and transferred to nitrocellulose membranes. DNMT1, phos-Histone-H2AX(Ser139), total Histone-H2AX, cleaved-PARP, p21, p53, and alpha-tubulin were detected using the Li-Cor Odyssey imaging system (Li-Cor Biotechnology; Lincoln, Nebr.), following incubation with the appropriate primary and secondary antibodies. The phos-Histone-H2AX(Ser139), cleaved-PARP, and p21 antibodies were from Cell Signaling Technology, Inc. The p53 and total Histone-H2AX (C-20) antibodies were from Santa Cruz Biotechnology, Inc. (Santa Cruz, Calif.). The alpha-tubulin and DNMT1 antibodies were purchased from EMD Chemicals, Inc. (Gibbstown, N.J.) and Abcam, Inc. (Cambridge, Mass.), respectively. The goat anti-Rabbit IRDye 680, goat anti-Mouse IRDye 800CW, and donkey anti-Goat IRDye 800CW secondary antibodies were from Li-Cor Biotechnology.

## Nc1ncn([C@@H]2O[C@H](CO)[C@@H](O)[C@H]2O)c(=O)n1 [AZA, 4-amino-1-β-D-ribofuranosyl-1,3,5-triazin-2(1H)-one]
  Induction of DNA damage and cell death markers, concentration comparison: at lower concentrations than DAC
